Key:
[1] = excess molar enthalpy (molar enthalpy of mixing); xn = mol fraction of the nth substance listed; conditions: 308.15 K, 100 kPa, Liquid, Calvet calorimetry
[2] = xn = mol fraction of the nth substance listed; conditions: 100 kPa, Liquid; for speed of sound: Frequency=3 MHz, Sing-around technique in a fixed-path interferometer; for mass density: Vibrating tube method

O=C1CCCCC1 [cyclohexanone] + C1COCCO1
[1]
Conditions	excess molar enthalpy [kcal/mol]
x2 = 0.0792	0.0195
x2 = 0.1286	0.0298
x2 = 0.1749	0.0381
x2 = 0.2236	0.0458
x2 = 0.2743	0.0526
x2 = 0.3289	0.0587
x2 = 0.3729	0.0627
x2 = 0.4298	0.0666
x2 = 0.4715	0.0686
x2 = 0.5242	0.07
x2 = 0.5735	0.0701
x2 = 0.6199	0.0691
x2 = 0.7182	0.0627
x2 = 0.7628	0.0576
x2 = 0.8193	0.0489
x2 = 0.8672	0.0394
x2 = 0.9173	0.0269

[2]
Conditions	mass density, 293.15 K [kg/m3]	mass density, 298.15 K [kg/m3]	mass density, 303.15 K [kg/m3]	mass density, 308.15 K [kg/m3]	speed of sound, 293.15 K [m/s]	speed of sound, 298.15 K [m/s]	speed of sound, 303.15 K [m/s]	speed of sound, 308.15 K [m/s]
x2 = 0.0999	953.66	949.13	944.25	939.34	1423.2	1407.2	1387	1367.1
x2 = 0.1548	957.29	952.73	947.83	942.9	1419	1402.8	1382.6	1362.7
x2 = 0.2064	960.83	956.23	951.32	946.37	1415.2	1398.7	1378.5	1358.7
x2 = 0.2523	964.08	959.45	954.52	949.56	1411.8	1395.1	1374.9	1355
x2 = 0.3087	968.21	963.55	958.59	953.6	1407.8	1390.8	1370.6	1350.6
x2 = 0.3412	970.67	965.97	960.99	955.99	1405.5	1388.3	1368.1	1348.1
x2 = 0.3952	974.86	970.12	965.11	960.08	1401.8	1384.3	1364	1343.9
x2 = 0.4315	977.76	972.99	967.96	962.9	1399.3	1381.6	1361.3	1341.2
x2 = 0.4875	982.38	977.54	972.47	967.38	1395.6	1377.6	1357.2	1336.9
x2 = 0.5348	986.41	981.52	976.42	971.29	1392.5	1374.2	1353.8	1333.5
x2 = 0.5798	990.36	985.42	980.28	975.11	1389.7	1371.1	1350.6	1330.2
x2 = 0.6145	993.49	988.51	983.33	978.13	1387.5	1368.7	1348.2	1327.7
x2 = 0.6698	998.63	993.56	988.34	983.08	1384.1	1365	1344.4	1323.8
x2 = 0.7148	1002.9	997.82	992.55	987.23	1381.5	1362	1341.4	1320.7
x2 = 0.7682	1008.2	1003	997.69	992.32	1378.5	1358.7	1338	1317.1
x2 = 0.8015	1011.6	1006.4	1001	995.58	1376.8	1356.7	1335.9	1314.9
x2 = 0.8542	1017.2	1011.8	1006.4	1000.8	1374.1	1353.6	1332.7	1311.5
x2 = 0.9054	1022.7	1017.3	1011.7	1006.2	1371.7	1350.8	1329.6	1308.3
